From patent US11051515B2, “3-acyl-benzamides and their use as herbicides” (Bayer Aktiengesellschaft, priority 2017, dated 2021)

Assays:
[1] = system: ECHCG; experiment: Post-emergence action against ECHCG; format: in vivo, Echinochloa crus-galli; conditions: post-emergence, dosage 80 g/ha, visual assessment about 3 weeks after treatment vs untreated controls
Procedure, shortened: (§1)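 Weeds grown in sandy loam in greenhouse, treated at one-leaf stage (2–3 weeks after sowing) with WP or EC formulations sprayed as aqueous suspension/emulsion at 600 to […] water with 0.2% wetting agent. Visual rating after about 3 weeks versus untreated controls, as % herbicidal action (100% = plants dead, 0% = like control).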

[2] = system: AVEFA; experiment: Post-emergence action against AVEFA; format: in vivo, Avena fatua; conditions: post-emergence, dosage 80 g/ha, visual assessment about 3 weeks after treatment vs untreated controls
Procedure, shortened: as §1

[3] = system: AVEFA; experiment: Pre-emergence action against AVEFA; format: in vivo, Avena fatua; conditions: dosage 320 g/ha, scored visually after 3 weeks vs untreated controls
Procedure, shortened: (§2)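 Seeds sown in sandy loam in wood-fiber pots and covered with soil. Greenhouse growth; visual damage scored after 3 weeks versus untreated controls (100% = dead, 0% = like control).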

[4] = system: ABUTH; experiment: Pre-emergence action against ABUTH; format: in vivo, Abutilon theophrasti; conditions: pre-emergence, dosage 320 g/ha, scored visually after 3 weeks vs untreated controls
Procedure, shortened: as §2

[5] = system: MATIN; experiment: Pre-emergence action against MATIN; format: in vivo, Matricaria inodora; conditions: Dosage 320 g/ha, pre-emergence
Procedure, shortened: as §2

[6] = system: PHBPU; experiment: Post-emergence action against PHBPU; format: in vivo, Pharbitis purpurea; conditions: post-emergence, dosage 80 g/ha
Procedure, shortened: as §1

[7] = system: AMARE; experiment: Post-emergence action against AMARE; format: in vivo, Amaranthus retroflexus; conditions: post-emergence, dosage 80 g/ha, visual assessment about 3 weeks after treatment vs untreated controls
Procedure, shortened: as §1

[8] = system: POLCO; experiment: Post-emergence action against POLCO; format: in vivo, Polygonum convolvulus; conditions: Fallopia convolvulus, 504 h; post-emergence, dosage 80 g/ha
Procedure, shortened: as §1

[9] = system: ALOMY; experiment: Pre-emergence action against ALOMY; format: in vivo, Alopecurus myosuroides; conditions: dosage 320 g/ha, pre-emergence, scored visually after 3 weeks vs untreated controls, 100% = plants have died, 0% = like control plants
Procedure, shortened: as §2

[10] = system: DIGSA; experiment: Post-emergence action against DIGSA; format: in vivo, Digitaria sanguinalis; conditions: dosage 80 g/ha, visual assessment about 3 weeks after treatment vs untreated controls
Method: Seeds of monocotyledonous and dicotyledonous weed and crop plants are laid out in sandy loam soil in wood-fiber pots, covered with soil and cultivated in a greenhouse under good growth conditions. 2 to 3 weeks after sowing, the test plants are treated at the one-leaf stage. The compounds of the invention, formulated in the form of wettable powders (WP) or as emulsion concentrates (EC), are then sprayed onto the green parts of the plants in the form of an aqueous suspension or emulsion at a water application rate equating to […], with addition of 0.2% wetting agent. After the test plants have been left to stand in the greenhouse under optimal growth conditions for about 3 weeks, the action of the preparations is assessed visually in comparison to untreated controls (herbicidal action in percent (%): 100% activity=the plants have died, 0% activity=like control plants). […] At the same time, inventive compounds leave Gramineae crops such as barley, wheat, rye, millet/Sorghum, corn or rice virtually undamaged when applied post-emergence, even at high active ingredient dosages. In addition, some substances are also harmless to dicotyledonous crops such as soya, cotton, oilseed rape, sugar beet or potatoes. Some of the compounds according to the invention have high selectivity and are therefore suitable for controlling unwanted vegetation in agricultural crops by the post-emergence method. The data of Tables B18 to B34 below illustrate, in an exemplary manner, the […] herbicidal action of the compounds according to the invention, the herbicidal activity being stated in percent.

[11] = system: AMARE; experiment: Pre-emergence action against AMARE; format: in vivo, Amaranthus retroflexus; conditions: pre-emergence, dosage 320 g/ha, scored visually after 3 weeks vs untreated controls
Procedure, shortened: as §2

[12] = system: SETVI; experiment: Pre-emergence action against SETVI; format: in vivo, Setaria viridis; conditions: pre-emergence, dosage 320 g/ha, scored visually after 3 weeks vs untreated controls
Procedure, shortened: as §2

[13] = system: MATIN; experiment: Post-emergence action against MATIN; format: in vivo, Matricaria inodora; conditions: post-emergence, dosage 80 g/ha, visual assessment about 3 weeks after treatment vs untreated controls
Procedure, shortened: as §1

[14] = system: PHBPU; experiment: Pre-emergence action against PHBPU; format: in vivo, Pharbitis purpurea; conditions: Dosage 320 g/ha, pre-emergence
Procedure, shortened: as §2

[15] = system: SETVI; experiment: Post-emergence action against SETVI; format: in vivo, Setaria viridis; conditions: Setaria viridis, 504 h; post-emergence, dosage 80 g/ha, visual assessment about 3 weeks after treatment vs untreated controls; read-out: Post-emergence action against SETVI (herbicidal action in percent)
Procedure, shortened: as §1

[16] = system: STEME; experiment: Post-emergence action against STEME; format: in vivo, Stellaria media; conditions: post-emergence, dosage 80 g/ha
Procedure, shortened: as §1

[17] = system: VIOTR; experiment: Post-emergence action against VIOTR; format: in vivo, Viola tricolor; conditions: post-emergence, dosage 80 g/ha
Procedure, shortened: as §1

[18] = system: ECHCG; experiment: Pre-emergence action against ECHCG; format: in vivo, Echinochloa crus-galli; conditions: pre-emergence, dosage 320 g/ha, scored visually after 3 weeks vs untreated controls
Procedure, shortened: as §2

[19] = system: ABUTH; experiment: Post-emergence action against ABUTH; format: in vivo, Abutilon theophrasti; conditions: post-emergence, dosage 80 g/ha, visual assessment about 3 weeks after treatment vs untreated controls
Procedure, shortened: as §1

[20] = system: VERPE; experiment: Post-emergence action against VERPE; format: in vivo, Veronica persica; conditions: dosage 80 g/ha
Procedure, shortened: as §1

[21] = system: VERPE; experiment: Pre-emergence action against VERPE; format: in vivo, Veronica persica; conditions: Dosage 320 g/ha, pre-emergence
Procedure, shortened: as §2

[22] = system: POLCO; experiment: Pre-emergence action against POLCO; format: in vivo, Polygonum convolvulus; conditions: Fallopia convolvulus, 504 h; Dosage 320 g/ha, pre-emergence
Procedure, shortened: as §2

[23] = system: VIOTR; experiment: Pre-emergence action against VIOTR; format: in vivo, Viola tricolor; conditions: Dosage 320 g/ha, pre-emergence
Procedure, shortened: as §2

[24] = system: DIGSA; experiment: Pre-emergence action against DIGSA; format: in vivo, Digitaria sanguinalis; conditions: dosage 320 g/ha, scored visually after 3 weeks vs untreated controls
Procedure, shortened: as §2

[25] = system: STEME; experiment: Pre-emergence action against STEME; format: in vivo, Stellaria media; conditions: Dosage 320 g/ha, pre-emergence
Procedure, shortened: as §2

[26] = system: HORMU; experiment: Pre-emergence action against HORMU; format: in vivo, Hordeum murinum; conditions: Dosage 320 g/ha
Procedure, shortened: as §2

[27] = system: LOLRI; experiment: Pre-emergence action against LOLRI; format: in vivo, Lolium rigidum; conditions: dosage 320 g/ha, scored visually after 3 weeks vs untreated controls
Procedure, shortened: as §2

## Cn1nnnc1NC(=O)c1ccc(C(F)(F)F)c(C(=O)C(F)F)c1Cl [1-163]
[1]; Echinochloa crus-galli, 504 h, read-out: Post-emergence action against ECHCG (herbicidal action in percent)
  pest or weed control at 80 g/ha: 90%
[2]; Avena fatua, 504 h, read-out: Post-emergence action against AVEFA (herbicidal action in percent)
  pest or weed control at 80 g/ha: 90%
[3]; Avena fatua, 504 h, read-out: Pre-emergence action against AVEFA (herbicidal activity)
  pest or weed control at 320 g/ha: 100%
[4]; Abutilon theophrasti, 504 h, read-out: Pre-emergence action against ABUTH (herbicidal activity)
  pest or weed control at 320 g/ha: 100%
[5]; Tripleurospermum inodorum, 504 h
  pest or weed control at 320 g/ha: 100%
[6]; Ipomoea purpurea, 504 h
  pest or weed control at 80 g/ha: 90%
[7]; Amaranthus retroflexus, 504 h, read-out: Post-emergence action against AMARE (herbicidal action in percent)
  pest or weed control at 80 g/ha: 90%
[8]
  pest or weed control at 80 g/ha: 100%
[9]; Alopecurus myosuroides, 504 h, read-out: Pre-emergence action against ALOMY (herbicidal activity in percent)
  pest or weed control at 320 g/ha: 90%
[10]
  Post-emergence action against DIGSA (herbicidal action in percent): 100%
[11]; Amaranthus retroflexus, 504 h, read-out: Pre-emergence action against AMARE (herbicidal activity)
  pest or weed control at 320 g/ha: 100%
[12]; Setaria viridis, 504 h, read-out: SETVI (Table B8, pre-emergence herbicidal activity)
  pest or weed control at 320 g/ha: 100%
[13]; Tripleurospermum inodorum, 504 h, read-out: Post-emergence action against MATIN (herbicidal action in percent)
  pest or weed control at 80 g/ha: 90%
[14]; Ipomoea purpurea, 504 h
  pest or weed control at 320 g/ha: 80%
[15]
  pest or weed control at 80 g/ha: 80%
[16]; Stellaria media, 504 h
  pest or weed control at 80 g/ha: 100%
[17]; Viola tricolor, 504 h
  pest or weed control at 80 g/ha: 90%
[18]; Echinochloa crus-galli, 504 h, read-out: Pre-emergence action against ECHCG (herbicidal activity)
  pest or weed control at 320 g/ha: 100%
[19]; Abutilon theophrasti, 504 h, read-out: Post-emergence action against ABUTH (herbicidal action in percent)
  pest or weed control at 80 g/ha: 90%
[20]; Veronica persica, 504 h
  pest or weed control at 80 g/ha: 90%
[21]; Veronica persica, 504 h
  pest or weed control at 320 g/ha: 100%
[22]
  pest or weed control at 320 g/ha: 90%
[23]; Viola tricolor, 504 h
  pest or weed control at 320 g/ha: 100%
[24]
  Pre-emergence action against DIGSA (herbicidal activity): 100%
[25]; Stellaria media, 504 h
  pest or weed control at 320 g/ha: 100%
[26]; Hordeum murinum, 504 h
  pest or weed control at 320 g/ha: 90%
[27]; Lolium rigidum, 504 h, read-out: Pre-emergence action against LOLRI (herbicidal activity)
  pest or weed control at 320 g/ha: 90%

## CSc1c(C(=O)Nc2nnnn2C)ccc(C(F)(F)F)c1C(=O)C1CCC1 [1-284]
[1]
  Post-emergence action against ECHCG (herbicidal action in percent): 100%
[2]
  Post-emergence action against AVEFA (herbicidal action in percent): 80%
[3]
  Pre-emergence action against AVEFA (herbicidal activity): 90%
[4]
  Pre-emergence action against ABUTH (herbicidal activity): 100%
[5]
  Pre-emergence action against MATIN: 100%
[6]
  Post-emergence action against PHBPU: 90
[7]
  Post-emergence action against AMARE (herbicidal action in percent): 100%
[9]
  Pre-emergence action against ALOMY (herbicidal activity in percent): 90%
[10]
  Post-emergence action against DIGSA (herbicidal action in percent): 90%
[11]
  Pre-emergence action against AMARE (herbicidal activity): 100%
[12]
  SETVI (Table B8, pre-emergence herbicidal activity): 100%
[13]
  Post-emergence action against MATIN (herbicidal action in percent): 100%
[14]
  Pre-emergence action against PHBPU: 80%
[16]
  Post-emergence action against STEME: 100
[17]
  Post-emergence action against VIOTR: 100
[18]
  Pre-emergence action against ECHCG (herbicidal activity): 100%
[19]
  Post-emergence action against ABUTH (herbicidal action in percent): 100%
[20]
  Post-emergence action against VERPE: 90
[21]
  Pre-emergence action against VERPE: 100%
[23]
  Pre-emergence action against VIOTR: 90%
[24]
  Pre-emergence action against DIGSA (herbicidal activity): 100%
[25]
  Pre-emergence action against STEME: 100%
[26]
  Pre-emergence action against HORMU: 80%
[27]
  Pre-emergence action against LOLRI (herbicidal activity): 90%
